Calls of active or inactive are those of the source.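 How the source made its calls: active means compounds giving half or more protection of infected cells from virus-caused growth loss, again on retest; inactive means the rest.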 Where a SMILES comes first, the peptide text is derived from it. The star is where a group is joined. X11 = Clc1c(Cl)c(Cl)c(O*)c(Cl)c1Cl; Boc = CC(C)(C)OC(=O)*; OBn = c1ccc(CO*)cc1; Bn = c1ccc(C*)cc1
Tested on: CEM cells HIV-1 protection, formazan growth assay
Test: NCI AIDS Antiviral Assay
Details: for IC50: measured here: growth of uninfected CEM cells
In short: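 Protection of CEM cells against HIV-1 measured as cell growth via soluble formazan read-out, with five concentrations tested on both infected and uninfected cells; failure to protect may reflect toxicity.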

Structure (SMILES) | outcome | EC50 [µM] | IC50 [µM]
COC(=O)[C@@H]1C[C@H]([Se]c2ccccc2)CN1C(=O)OCc1ccccc1 | inactive | – | –
N#CSC1=C(SC#N)C(=O)c2ccccc2C1=O | – | > 200 | 12.3
O=C(NCCCN1CC2CCCC2C1)C(c1ccccc1)c1ccccc1 (stereo not given) | – | > 200 | 39.8
CN(/N=C/c1ccc(Cl)c(Cl)c1)C1=NCCCCN1 | – | > 200 | 26.3
CCN(CC)CCOC(=O)c1ccc(NC(=O)CN(CC)CC)cc1 | – | > 200 | > 200
Cc1ccc(/C=N\NC2c3cc(Cl)ccc3Nc3nc(=O)[nH]c(C)c32)cc1 (stereo not given) | – | > 200 | 120
CC1(C)COC(c2ccccc2Br)=N1 | – | > 200 | > 200
N#Cc1nc(COCc2ccccc2)oc1N | – | > 200 | 95.5
CCN(CC)c1cccc2c1C1(O)CCC3(CC21)OCCCCO3 (stereo not given) | – | > 200 | 97.7
O=C(Sc1nnnn1-c1ccccc1)Sc1nnnn1-c1ccccc1 | – | 97.7 | 178
COC(=O)c1ccccc1NC(=O)C(=O)Cc1nc2c3c(ccc2[nH]c1=O)C(=O)c1ccccc1C3=O | – | > 20.4 | > 20.4
O=C1C(Cl)C(c2cccc([N+](=O)[O-])c2)N1n1cnc2ccccc2c1=O (stereo not given) | – | > 10 | > 10
Cc1cn(C2CC(O)C(CO[Si](C)(C)C(C)(C)C)OC2OC(C)C)c(=O)[nH]c1=O (stereo not given) | – | > 200 | 37.2
Clc1ccc2c(c1)nnn1nccc21 | – | > 35.5 | > 35.5
N=C1N=Nc2nc(C(C(=O)c3cccc4ccccc34)c3nc4n(c3O)C(=N)N=N4)c(O)n21 (stereo not given) | – | > 200 | 117
COC(=O)C1OS(=O)(=O)OC1C(=O)OC (stereo not given) | – | > 200 | > 200
O=C1COc2ccc([N+](=O)[O-])cc2C(=O)C1 | – | > 200 | > 200
Cc1nc(Nc2ccccc2Cl)sc1C(=O)CC(=O)C(=O)Nc1c(Cl)cccc1Cl | – | > 200 | 57.5
Cc1ccc(SC2C(C)(C)N(C(C)C)P2(=O)N(C(C)C)C(C)C)cc1 (stereo not given) | – | > 9.77 | > 9.77
c1ccc(-c2nnc3oc(-c4cccs4)nn23)cc1 | – | > 100 | > 100
CCOC(=O)NC(C(F)(F)F)(C(F)(F)F)P(=O)(OCC)OCC | – | > 200 | 11.5
Cc1c(/C=N/NC(=S)Nc2ccccc2)c(=O)n(-c2ccccc2)n1C | – | > 200 | > 200

Structure (SMILES) | outcome | EC50 [µM] | IC50 [µM]
COC(=O)C(=O)C(C(=O)OC)C(=O)C(=O)Nc1c(C)cccc1C (stereo not given) | – | > 204 | > 204
CC(C)(C)c1cc2c3c(c1)C(C(F)(F)F)(C(F)(F)F)O[Te]3(C)OC2(C(F)(F)F)C(F)(F)F | – | > 31.6 | > 31.6
COc1ccc(/C=C2/SC(c3c(O)ccc4ccccc34)N(NC(=O)CCCCCCCCC(=O)NN3C(=O)/C(=C\c4ccc(OC)c(OC)c4)SC3c3c(O)ccc4ccccc34)C2=O)cc1OC (stereo not given) | – | > 200 | 8.51
CCNC(=S)NNC(=O)c1ccccc1Nc1ccccc1C(=O)NNC(=S)NCC | inactive | – | 112
COC(=O)C(=O)C1CCCC(c2nc3n(c2O)C(=N)N=N3)C1=O (stereo not given) | – | > 776 | > 776
CCOC(=O)C(=O)Nc1ccc([N+](=O)[O-])cc1C#N | – | > 355 | > 355
O=P(CCOc1ccccc1OCCP(=O)(c1ccccc1)c1ccc2c(c1)OCCOCCOCCOCCO2)(c1ccccc1)c1ccc2c(c1)OCCOCCOCCOCCO2 (stereo not given) | – | > 263 | > 263
N#C/C(=C\c1ccc(Br)cc1)C(=O)c1ccccc1 | – | > 95.5 | 67.6
C=C(C)C(O)C(O)c1c(OC)ccc2ccc(=O)oc12 (stereo not given) | – | > 174 | > 174
COc1ccc(OC)c(NC(=O)CCC/C(CC(=O)c2ccc(O)c(OC)c2)=N\Nc2ccc([N+](=O)[O-])cc2)c1 | – | > 13.2 | > 13.2
Nc1ccc2c(c1)NC(=O)[C@@H]1CCCN1C2=O | – | > 200 | > 200
CC(C)(C)OC(=O)N1CCc2[nH][nH]c(=O)c2C1 | – | > 200 | > 200
[O]=[Sb][c]1ccc(Cl)cc1 | – | > 200 | 2.63
CC1(CC2=C(Br)CCCC2)C(=O)CC=C1O (stereo not given) | – | > 200 | 174
CC1=CC(=C(c2cc(C)c(O)c(C(=O)O)c2)c2cc(C)c(O)c(C(=O)O)c2)C=C(C(=O)O)C1=O | inactive | – | –
Cc1cn(C(C)OCCN(O)C(=O)Oc2ccccc2)c(=O)[nH]c1=O (stereo not given) | – | > 200 | > 200
NC(=N\N=C/c1ccc(Cl)c(Cl)c1)/C(N)=N\N=C/c1ccc(Cl)c(Cl)c1 | inactive | – | –
C/C(CC(O)(C(F)(F)Cl)C(F)(F)Cl)=N\Nc1ccccc1 | – | > 200 | 52.5
O=C(CCCN1CCC(n2c(=O)[nH]c3ccccc32)CC1)c1ccc(F)cc1 | – | > 200 | 89.1
CC(=O)NC1=N/C(=C\c2ccc(Cl)cc2)C(=O)N1/C=C1\C(=O)Oc2ccccc2C1=O | – | > 200 | 87.1
Cn1c(=O)c2[nH]cnc2n(CC(N)=O)c1=O | – | > 562 | > 562
O=[N+]([O-])c1ccc(P2(=O)Nc3ccccc3N2)cc1 | – | > 245 | 70.8

Structure (SMILES) | outcome | EC50 [µM] | IC50 [µM]
NNC1=Nc2ccc(Cl)cc2C(=S)N2CSCC12 (stereo not given) | – | > 200 | > 200
CCC1CCC23OOC(C)(CCC2C1)O[C@@H]3OC (stereo not given in full) | – | > 49 | > 49
CCCCN(CCCC)C(=NCc1ccccc1)NC#N | – | > 100 | 17.4
Cc1c(Cl)ccc2c1NC(=O)C2(O)CC(=O)c1cccc2ccccc12 (stereo not given) | – | > 97.7 | > 97.7
COC(=O)C(C)NC(=O)c1ccccc1SC(=O)CCCC[n+]1ccccc1 (stereo not given) | – | > 200 | 2.4
CC1=CC(=O)N2C(OC[C@@H]2c2ccccc2)O1 (stereo not given in full) | – | > 562 | > 562
COC(=O)C12CCC(=O)N1CC(=O)c1c2[nH]c2ccccc12 (stereo not given) | inactive | – | –
COc1c(OP2(=S)OCC(C)(C)CO2)cnn(C2CCCCC2)c1=O | – | > 200 | 24.5
Cc1ccnc2c1C(=O)C(=O)C=C2N1CCCC1 | inactive | – | –
O=C(O)[C@H]1CCCN1C(=O)c1ccccc1SSc1ccccc1C(=O)N1CCC[C@H]1C(=O)O | – | > 200 | > 200
O=C1CCCCCC1CC(Sc1ccccc1)Sc1ccccc1 (stereo not given) | – | > 200 | 16.2
Nc1nc(=O)n(C2OC(CO)CC2F)cc1Cl (stereo not given) | – | > 191 | > 191
CCCCCCCC(=O)OC[C@@H](C[As](=O)(O)O)OC(=O)CCCCCCC | – | > 200 | 9.33
Cc1c(C2(c3cc(Br)c(O)c(Br)c3C)OS(=O)(=O)c3ccccc32)cc(Br)c(O)c1Br | inactive | – | –
O=C1c2c(O)ccc([N+](=O)[O-])c2C(=O)c2c(O)ccc(Nc3cccc(CO)c3)c21 | – | > 200 | 0.724
OCCN1CCOC(O)(c2cccc(C(F)(F)F)c2)C1 (stereo not given) | – | > 200 | 115
C=CCc1ccc(Oc2cc(CC=C)c3c(c2O)O[C@@H](CO)[C@H]3c2ccc(O)c(-c3cc(CC=C)ccc3O)c2)cc1 | – | > 100 | > 100
N#Cc1sc2c(c1OC(=O)c1ccc(C(F)(F)F)cc1)c(=O)n(-c1ccccc1)c(=S)n2-c1ccccc1 | – | > 200 | 2.24
COc1ccc2c(-c3ccc(OCCN(C)C)cc3)c(Oc3ccccc3)c(=O)oc2c1 | – | > 200 | 7.08
C/C(=N\NC(N)=O)c1ccccc1 | inactive | – | –
CN(C(=O)c1ccc(Cl)cc1)C(=S)N1CCN(c2ccccn2)CC1 | – | > 69.2 | 61.7
COC1Cc2ccccc2C1O (stereo not given) | inactive | – | –

Structure (SMILES) | outcome | EC50 [µM] | IC50 [µM]
CCCCCCCN=C(N)CSSCC(N)=NCCCCCCC | – | > 331 | 10.2
N#Cc1c([N+](=O)[O-])cc(C(F)(F)F)cc1[N+](=O)[O-] | inactive | – | –
COc1ccc(N=C2SCC(=O)N2NC(=O)CN2C(=O)c3ccccc3C2=O)cc1 | – | > 20.4 | 17.4
O=C(O)c1ccc(C2SCc3nc4ccccc4n32)cc1 (stereo not given) | – | > 200 | > 200
CC(C)=CCN1Cc2cccc3[nH]c(=S)n(c23)C[C@@H]1C | – | 0.0302 | 1.74
O=C1C(Cl)N(c2cccc(Cl)c2)C1c1c[nH]c2ccccc12 (stereo not given) | – | > 282 | 102
COC(=O)C(Cc1nc2ccccc2[nH]c1=O)C(=O)C(=O)Nc1cc(C(F)(F)F)ccc1Cl (stereo not given) | – | > 74.1 | 7.41
CC(c1ccccc1O)C1CCCCC1N=O (stereo not given) | inactive | – | –
CC(C)CC(NC(=O)C(CCC(=O)OCc1ccccc1)NC(=O)OC(C)(C)C)C(=O)NC(COCc1ccccc1)C(=O)NC(Cc1ccccc1)C(=O)Oc1c(Cl)c(Cl)c(Cl)c(Cl)c1Cl (stereo not given) (Boc-E(OBn)LS(Bn)F-X11; configuration not given here) | – | > 200 | 38.9
CC(C)(C)OC(=O)NCCNCCNc1ccccc1 | inactive | – | –
CCCCCCCCCC=C(c1cc(Br)cc(C(=O)O)c1OC)c1cc(Br)cc(C(=O)O)c1OC | – | > 1200 | 75.9
O=c1c(O)c(O)c1=O | inactive | – | –
Cc1c(Cl)c(=O)oc2cc(OCC(O)COC(C)C)ccc12 (stereo not given) | inactive | – | –
N/C(=N\N=C\c1ccc(C(F)(F)F)cc1)NO | – | > 427 | > 427
Nc1c(S(=O)(=O)O)cc(S(=O)(=O)O)c2ccc(N=Nc3ccc(/C=C/c4ccc(N=Nc5ccc6c(S(=O)(=O)O)cc(S(=O)(=O)O)c(N)c6c5O)cc4S(=O)(=O)O)c(S(=O)(=O)O)c3)c(O)c12 | – | 10.2 | 51.3
Cc1c(Cc2ccccc2)n(C(C)OCCN2C(=O)c3ccccc3C2=O)c(=O)[nH]c1=O (stereo not given) | – | > 200 | > 200
O=C(OCCN=C1c2ccccc2CCc2ccccc21)c1cc([N+](=O)[O-])cc([N+](=O)[O-])c1 | – | > 200 | 70.8
Cn1c(=S)[nH]n(CCOc2ccccc2)c1=S | – | > 200 | > 200
COC(=O)N1CC2CC=CC(C2)c2ccccc21 (stereo not given) | – | > 204 | > 204
N#C/C(=N/Nc1nc[nH]c1C(N)=O)C(=O)Nc1ccccc1 | – | > 200 | 1.07
Cc1ccc2ccc(-c3ccccc3)c3c2c1C(=O)c1ccccc1C3=O | inactive | – | –
